Laboratory results from patent US20190038714A1, “ANTI-INFLAMMATORY COMPOSITION COMPRISING CLAVASPIRIN PEPTIDE ANALOGUE AS EFFECTIVE INGREDIENT” (INDUSTRY-ACADEMIC COOPERATION FOUNDATION, CHOSUN UNIVERSITY, priority 2015, published 2019).
Ends that are not written are not given here.

Assays:
S. aureus MRSA 3126 = conditions: 24 hours at 37° C.
[1] = tested on: Bacillus subtilis, KCTC 1918; experiment: Growth minimum inhibitory concentration (MIC), microtiter broth dilution; format: cell-based; conditions: B. subtilis; 12 hours at 37° C.
From the text: (§1) To compare the antimicrobial activity of the peptide produced by the method of Example 1, the inventors of the present invention measured the growth minimum inhibitory concentration (MIC), which is minimum concentration of the peptide showing no dissociation of bacterial cells.
(§2) Specifically, E. coli (Escherichia coli, ATCC 25922), and P. aeruginosa (Pseudomonas aeruginosa, ATCC 15692), S. typhimurium (Salmonella typhimurium, KTCC 1926), and P. vulgaris (Proteus vulgaris, KCTC 2433 as Gram-negative bacteria, and S. aureus (Staphylococcus aureus, ATCC 25923), L. monocytogenes (Listeria monocytogenes, ATCC 19115), B. subtilis (Bacillus subtilis, KCTC 1918), and S. epidermidis (Staphylococcus epidermidis, KCTC 3096) as Gram-positive bacteria were used after obtaining them from American Type Culture Collection (ATCC) or Korean Cell Line Bank. Each bacterial cell line was cultured in LB medium (1% bacto tryptone, 0.5% bacto yeast extract, and 1% sodium chloride; Sigma, USA) to a mid-log phase at pH of 5.5 or 7.4. After that, the cells were diluted in 1% bacto peptone medium (Difco, USA) to have cell body concentration of 5×10^5 cells/100 μl, and then inoculated to a microtiter plate (NUNC, USA). Thereafter, each of CSP-4 peptide synthesized in Example 1 above and the mother peptide was diluted, 1/2 times for each, at pH of 5.5 or 7.4 in a 96-well plate. After adding the cells to the plate, the cells were cultured for 12 hours at 37° C. Then, the absorbance was measured at a wavelength of 620 nm by using a microtiter plate reader (Merck Elisa reader, Germany) to determine the MIC value of each bacterial strain.

[2] = tested on: Escherichia coli, ATCC 25922; experiment: as above; format: cell-based; conditions: 12 hours at 37° C., pH of 5.5 or 7.4 (not given)
From the text: as §1, §2

[3] = tested on: Pseudomonas aeruginosa, ATCC 15692; experiment: as above; format: cell-based; conditions: P. aeruginosa; 12 hours at 37° C.
From the text: as §1, §2

[4] = tested on: Staphylococcus epidermidis, KCTC 3096; experiment: as above; format: cell-based; conditions: S. epidermidis; 12 hours at 37° C.
From the text: as §1, §2

[5] = tested on: Staphylococcus aureus, ATCC 25923; experiment: as above; format: cell-based; conditions: S. aureus; 12 hours at 37° C.
From the text: as §1, §2

[6] = tested on: Proteus vulgaris, KCTC 2433; experiment: as above; format: cell-based; conditions: P. vulgaris; 12 hours at 37° C.
From the text: as §1, §2

[7] = tested on: Salmonella typhimurium, KTCC 1926; experiment: as above; format: cell-based; conditions: S. typhimurium; 12 hours at 37° C.
From the text: as §1, §2

[8] = tested on: Listeria monocytogenes, ATCC 19115; experiment: as above; format: cell-based; conditions: L. monocytogenes; 12 hours at 37° C.
From the text: as §1, §2

S. aureus MRSA 1630 = conditions: 24 hours at 37° C.
S. aureus MRSA 0027 = conditions: 24 hours at 37° C.
S. aureus MRSA 2-122 = conditions: 24 hours at 37° C.
S. aureus = conditions: 24 hours at 37° C.
S. aureus MRSA 5157 = conditions: 24 hours at 37° C.
S. aureus MRSA 3518 = conditions: 24 hours at 37° C.
S. aureus MRSA 5159 = conditions: 24 hours at 37° C.
human erythrocyte = experiment: Erythrocyte hemolytic activity; format: cell-based; conditions: for Erythrocyte disrupting ability %: 1 hour at 37° C., Triton X-100 = 100%
Description: To compare the cytotoxicity among the peptides that are produced by the method of Example 1, erythrocyte hemolytic activity of the synthesized peptide was measured.
Specifically, human erythrocyte was diluted in physiological saline (PBS, pH 7.0) to have concentration of 8%, and clavaspirin, CSP-4, and melittin peptide were serially diluted (i.e., dilution to 1/2 concentration from higher concentration for each dilution) followed by reaction for 1 hour at 37° C. After that, the amount of hemoglobin contained in a supernatant collected by centrifuge at 1,000×g was determined by measuring the absorbance at a wavelength of 414 nm. As a control group to be used as a reference for cell disruption level, the supernatant collected by a treatment with 1% Triton X-100 (Sigma, USA) and a reaction for 1 hour at 37° C. was used for absorbance measurement. By setting the erythrocyte hemolytic activity of Triton X-100 at 100%, the hemolytic activity of the above peptides was calculated using the following mathematical equation 1.
Erythrocyte disrupting ability (hemolysis) (%)=(Absorbance A−Absorbance B)/(Absorbance C−Absorbance B)×100 [Mathematical equation 1]
(in the above equation, Absorbance A indicates the absorbance of a reaction solution treated with each peptide, in which the absorbance is measured at a wavelength of 414 nm; Absorbance B indicates the absorbance of a reaction solution treated with PBS, in which the absorbance is measured at a wavelength of 414 nm; and Absorbance C indicates the absorbance of a reaction solution treated with 1% Triton X-100, in which the absorbance is measured at a wavelength of 414 nm).

S. aureus MRSA 5156 = conditions: 24 hours at 37° C.

Substance	MIC (S. aureus MRSA 3126)	Growth minimum inhibitory concentration [1]	Growth minimum inhibitory concentration [2]	Growth minimum inhibitory concentration [3]	Growth minimum inhibitory concentration [4]	Growth minimum inhibitory concentration [5]	Growth minimum inhibitory concentration [6]	Growth minimum inhibitory concentration [7]	Growth minimum inhibitory concentration [8]	MIC (S. aureus MRSA 1630)	MIC (S. aureus MRSA 0027)	MIC (S. aureus MRSA 2-122)	MIC (S. aureus)	MIC (S. aureus MRSA 5157)	MIC (S. aureus MRSA 3518)	MIC (S. aureus MRSA 5159)	Erythrocyte disrupting ability % (human erythrocyte; peptide 25 μM)	Erythrocyte disrupting ability % (human erythrocyte; peptide 50 μM)	Erythrocyte disrupting ability % (human erythrocyte; peptide 100 μM)	Erythrocyte disrupting ability % (human erythrocyte; peptide 200 μM)	other results
FLRFIGSVIHGIGHLVHHIGVAL-NH2 [Clavaspirin]	16 µM	16 µM	2 µM	32 µM	4 µM	16 µM	8 µM	32 µM	16 µM	8 µM	16 µM	8 µM	16 µM	8 µM	8 µM	32 µM	100%	100%	100%	100%	Erythrocyte disrupting ability % (human erythrocyte; peptide 400 μM): 100%; MIC (S. aureus MRSA 5156): 8 µM
FLRFIGSVKHGKGHLVHHIGVAL-NH2 [CSP-4]	8 µM	4 µM	2 µM	32 µM	4 µM	8 µM	4 µM	64 µM	4 µM	8 µM	8 µM	8 µM	8 µM	8 µM	8 µM	8 µM	0%	0%	0%	1%	hemolysis (FIG. 1) (human erythrocyte; at 500 μg/ml): less than 1%; hemolytic activity (human erythrocyte; concentration of 200 μM or less): almost no hemolytic activity; Erythrocyte disrupting ability % (human erythrocyte; peptide 400 μM): 10%; MIC (S. aureus MRSA 5156): 8 µM
